From patent publication US20220089609A1, “SUBSTITUTED QUINAZOLINONE DERIVATIVES AND THEIR USE AS POSITIVE ALLOSTERIC MODULATORS OF MGLUR4” (DOMAIN THERAPEUTICS, priority 2018, published 2022)
Structures can show the parent of a compound that is named as a salt.

Experiments:
[1] = system: haloperidol-induced catalepsy; experiment: Haloperidol-induced catalepsy model in the mouse (bar test); type: in vivo; settings: 1 mg/kg per os 60 minutes after haloperidol (1 mg/kg i.p.), measured between 135 and 270 min after haloperidol injection
Protocol: This method, which detects anti-cataleptic activity, follows those well-known by one skilled in the art and described in the literature (e.g. Pires et al., Braz J Med and Biol Res 38, 1867-1872, 2005; Shiozaki et al., Psychopharmacology 147, 90-95, 1999). Catalepsy is a symptom of Parkinson's disease, and is characterized by muscular rigidity and fixity of posture.
The procedure applied to the compounds of the invention is as follows:
Catalepsy is assessed using the bar test in mice submitted to acute administration of haloperidol (1 mg/kg, intra-peritoneal or i.p.). Mice (male RjOrl:SWISS mice, weighing 30-35 g at the beginning of the experiment) were placed (6 to 9 in each group) in Plexiglas cages, and injected with haloperidol (1 mg/kg i.p.). The catalepsy response of one mouse was measured when the animal maintained an imposed posture with both forelimbs placed on a horizontal 0.9 cm diameter wire bar suspended 4 cm above a platform. The end point of catalepsy was considered to occur when both forelimbs were removed from the bar, the mouse climbed onto the bar or if the animal moved its head in an exploratory manner. A cut-off time of 180 seconds was applied. The degree of catalepsy was scored 45 minutes after haloperidol administration and continued at 45 minutes intervals for a total of 270 minutes. Between determinations, the animals were returned to their home cages.
Compounds 81, 100, 114, 119, 143 and 144 were evaluated at 1 mg/kg, administered per os, 60 minutes after haloperidol, and compared with a vehicle control group.
The anti-cataleptic effect of the compound was compared to vehicle-treated group using ANOVA test followed by the Dunnett's test.

[2] = target: T1, human mGluR4 (hmGluR4) (Homo sapiens, UniProt Q14833); experiment: Calcium assay EC50 determination, positive allosteric modulator activity on hmGluR4 transiently over-expressed in HEK-293 cells; type: cell-based; settings: PAM mode with EC20 glutamate; hmGluR4 in HEK-293 cells; intracellular calcium (Fluo4AM); read-out: mGluR4 positive allosteric modulator activity, half maximal effective concentration (EC50)
T1 construct: expressed in transfected cells; host or cells: HEK-293 cells, transient co-transfection by electroporation
T1 sequence (Q14833 33-912): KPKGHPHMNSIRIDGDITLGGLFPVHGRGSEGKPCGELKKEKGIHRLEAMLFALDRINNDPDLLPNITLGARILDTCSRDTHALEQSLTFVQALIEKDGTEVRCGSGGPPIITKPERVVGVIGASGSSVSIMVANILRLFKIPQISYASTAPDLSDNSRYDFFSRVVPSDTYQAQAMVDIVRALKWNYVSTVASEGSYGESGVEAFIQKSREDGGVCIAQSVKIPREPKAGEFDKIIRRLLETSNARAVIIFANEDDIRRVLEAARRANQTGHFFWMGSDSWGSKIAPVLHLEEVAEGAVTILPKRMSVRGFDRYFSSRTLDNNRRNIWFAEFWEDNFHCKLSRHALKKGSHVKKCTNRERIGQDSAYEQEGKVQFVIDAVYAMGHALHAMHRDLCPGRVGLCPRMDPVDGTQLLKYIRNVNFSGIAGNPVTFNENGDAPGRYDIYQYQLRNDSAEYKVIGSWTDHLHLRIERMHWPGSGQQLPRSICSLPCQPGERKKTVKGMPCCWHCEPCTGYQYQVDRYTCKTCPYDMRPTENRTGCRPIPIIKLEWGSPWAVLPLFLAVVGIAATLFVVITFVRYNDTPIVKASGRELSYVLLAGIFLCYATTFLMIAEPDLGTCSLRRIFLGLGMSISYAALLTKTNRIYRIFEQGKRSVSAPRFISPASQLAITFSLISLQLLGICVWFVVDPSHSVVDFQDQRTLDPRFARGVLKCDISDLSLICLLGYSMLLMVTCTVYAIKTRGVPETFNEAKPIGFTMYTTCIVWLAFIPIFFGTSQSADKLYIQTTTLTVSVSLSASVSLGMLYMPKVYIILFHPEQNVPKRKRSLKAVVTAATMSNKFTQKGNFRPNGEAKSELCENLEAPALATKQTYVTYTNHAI
Outline: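 HEK-293 cells transiently co-transfected with hmGluR4, chimeric G protein and glutamate transporters; Fluo4AM calcium read (ex 485/em 525 nm) on FLIPR Tetra. Compound alone 10 min for agonism, then EC20 glutamate with 3 min recording for PAM activity, versus buffer or EC20 glutamate basal.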

| Structure (SMILES) | melting point | EC50 [2] | anti-cataleptic effect (mean time of latency spent on the bar) compared to vehicle-treated group [1] |
| --- | --- | --- | --- |
| Cc1cc(CN2CCOCC2)cc2c(=O)[nH]c(-c3cc4ccsc4cn3)nc12 [Compound 114, 8-methyl-6-(morpholinomethyl)-2-thieno[2,3-c]pyridin-5-yl-3H-quinazolin-4-one hydrochloride] |  | ≤ 100 nM | significant anti-cataleptic effect |
| Cc1cc(OC2CCC(=O)N(C)C2)cc2c(=O)[nH]c(-c3cc4ccsc4cn3)nc12 (stereo not shown) [Compound 81, 8-Methyl-6-(1-methyl-6-oxo-piperidin-3-yloxy)-2-thieno[2,3-c]pyridin-5-yl-3H-quinazolin-4-one] | 221 to 225 °C | ≤ 100 nM | significant anti-cataleptic effect |
| Cc1cc(CCN2CCOCC2)cc2c(=O)[nH]c(-c3cc4ccsc4cn3)nc12 [Compound 100, 8-methyl-6-(2-morpholin-4-yl-ethyl)-2-thieno[2,3-c]pyridin-5-yl-3H-quinazolin-4-one hydrochloride] |  | ≤ 100 nM | significant anti-cataleptic effect |

Now from value to molecule, other results behind:

| melting point | EC50 [2] | Structure (SMILES) | anti-cataleptic effect (mean time of latency spent on the bar) compared to vehicle-treated group [1] |
| --- | --- | --- | --- |
| > 250 °C | ≤ 100 nM | Cc1cc(CN2CCOCC2)cc2c(=O)[nH]c(-c3cc4sccc4cn3)nc12.Cl [Compound 119, 8-Methyl-6-(morpholinomethyl)-2-(thieno[3,2-c]pyridin-6-yl)quinazolin-4(3H)-one hydrochloride] | significant anti-cataleptic effect |
| > 250 °C | ≤ 100 nM | Cc1cc(CCN2CCN(C)C(=O)C2)cc2c(=O)[nH]c(-c3cc4sccc4cn3)nc12.Cl [Compound 143, 8-Methyl-6-[2-(4-methyl-3-oxo-piperazin-1-yl)ethyl]-2-thieno[3,2-c]pyridin-6-yl-3H-quinazolin-4-one hydrochloride] | significant anti-cataleptic effect |
